Reference: US8772268B2, “Bisphosphonamidate prodrugs and uses thereof” (The Johns Hopkins University, priority 2010, dated 2014)
Where two headings read alike, the source gives them in different places.

Key:
[1] = tested on: SN12C; experiment: NCI-60 DTP Human Tumor Cell Line Screen; format: cell-based; settings: Renal Cancer, 48 h
[2] = tested on: SNB-19; experiment: NCI-60 DTP Human Tumor Cell Line Screen; format: cell-based; settings: SNB-19, CNS Cancer, 48 h
[3] = tested on: A549 NSCLC cells; experiment: Trypan blue cell count assay, A549; settings: for EC50: read-out: EC50 (decreased cell number by 50% compared to control), A549, trypan blue
Procedure: A549 NSCLC cells were plated at 1.7×10^4 cells per well in flat bottom 12-well plates. Cells were dosed as described above. At 24, 48 or 72 hours following drug treatment, the media was collected, and the cells were washed with 200 μL PBS. Each well was trypsinized with 200 μL trypsin for 3-5 min. The trypsin reaction was quenched with an equal volume of media. All supernatants and washes were combined and spun at 1,500 rpm for 5 min. Supernatant was decanted, and the cells were resuspended in 200 μL media. The cells were diluted 1:1 in 0.04% trypan blue and counted using a cytometer. The absolute number of cells was determined at each drug concentration. The cell number for each concentration was converted to percent of control for each time point, and plotted using GraphPad Prism 4.0. The EC50 was calculated as the concentration of drug that caused a 50% decrease in number of cells compared to control.
The number of viable cells at each dose was determined at 0, 24, 48 and 72 hours following drug treatment and plotted as a percent of control (FIG. 6A).

[4] = tested on: A549 NSCLC cells; experiment: MTS cell proliferation assay, A549; format: cell-based; settings: for IC50: A549, MTS, read-out: IC50 (decreased cell proliferation by 50% compared to control)
Procedure: Cell proliferation was determined using the CellTiter 96 Aqueous One Solution Cell Proliferation Assay MTS assay. A549 NSCLC cells were plated at 1.5×10^3 cells per well in flat bottom 96 well plates in 99 μL of media and allowed to adhere overnight. The drugs were serially diluted in 100% DMSO. For each drug treatment group, 1 μL of a 100× stock solution was added to each well for a final DMSO concentration of 1%. Cells were treated for 24, 48 or 72 hours. Cells were incubated with MTS dye (20 μL well^−1) for 40 min to 2 h. Absorbance at 490 nm was determined using a SpectraMax M2 (Molecular Devices) plate reader. The percent cell proliferation was calculated by converting the experimental absorbance to percentage of control, which was then plotted vs. drug concentration. The IC50 values were determined using a non-linear dose-response analysis in GraphPad Prism version 4.0. The IC50 is defined as the concentration of drug needed to cause a 50% decrease in proliferation compared to vehicle control. […]

[5] = tested on: L1210; experiment: Cytotoxicity, L1210; format: cell-based
[6] = tested on: KM12; experiment: NCI-60 DTP Human Tumor Cell Line Screen; format: cell-based; settings: KM12, Colon Cancer, 48 h
[7] = tested on: K-562; experiment: NCI-60 DTP Human Tumor Cell Line Screen; format: cell-based; settings: K-562, Leukemia, 48 h
[8] = tested on: PIP3 (prostate) cancer cell line; experiment: MTS cell proliferation assay, PIP3; format: cell-based
Procedure: Cell proliferation was determined using the CellTiter 96 Aqueous One Solution Cell Proliferation Assay MTS assay. A549 NSCLC cells were plated at 1.5×10^3 cells per well in flat bottom 96 well plates in 99 μL of media and allowed to adhere overnight. The drugs were serially diluted in 100% DMSO. For each drug treatment group, 1 μL of a 100× stock solution was added to each well for a final DMSO concentration of 1%. Cells were treated for 24, 48 or 72 hours. Cells were incubated with MTS dye (20 μL well^−1) for 40 min to 2 h. Absorbance at 490 nm was determined using a SpectraMax M2 (Molecular Devices) plate reader. The percent cell proliferation was calculated by converting the experimental absorbance to percentage of control, which was then plotted vs. drug concentration. The IC50 values were determined using a non-linear dose-response analysis in GraphPad Prism version 4.0. The IC50 is defined as the concentration of drug needed to cause a 50% decrease in proliferation compared to vehicle control.
The activity of Clodronate prodrug (14) was tested against other cell lines, include prostate (PIP3) and breast (MDA-MB-453) cancer cells lines. Cell proliferation was determined using the CellTiter 96 Aqueous One Solution Cell Proliferation Assay MTS assay as discussed above. Results are shown in FIG. 22 and in the table below.

[9] = tested on: LOX IMVI; experiment: NCI-60 DTP Human Tumor Cell Line Screen; format: cell-based; settings: Melanoma, 48 h
[10] = tested on: UO-31; experiment: NCI-60 DTP Human Tumor Cell Line Screen; format: cell-based; settings: UO-31, Renal Cancer, 48 h
[11] = tested on: NCI-H522; experiment: NCI-60 DTP Human Tumor Cell Line Screen; format: cell-based; settings: NCI-H522, Non-Small Cell Lung Cancer, 48 h
[12] = tested on: COLO 205; experiment: NCI-60 DTP Human Tumor Cell Line Screen; format: cell-based; settings: COLO 205, Colon Cancer, 48 h
[13] = tested on: SW-620; experiment: NCI-60 DTP Human Tumor Cell Line Screen; format: cell-based; settings: SW-620, Colon Cancer, 48 h
[14] = tested on: HCC-2998; experiment: NCI-60 DTP Human Tumor Cell Line Screen; format: cell-based; settings: HCC-2998, Colon Cancer, 48 h
[15] = tested on: NCI-H322M; experiment: NCI-60 DTP Human Tumor Cell Line Screen; format: cell-based; settings: Non-Small Cell Lung Cancer, 48 h
[16] = tested on: UACC-62; experiment: NCI-60 DTP Human Tumor Cell Line Screen; format: cell-based; settings: UACC-62, Melanoma, 48 h

With CN(CCCCCl)P(=O)(OCc1ccc([N+](=O)[O-])cc1)C(Cl)(Cl)P(=O)(OCc1ccc([N+](=O)[O-])cc1)N(C)CCCCCl (centres unmarked) [compound 14] the Log10GI50 [1] was −5.42, the Log10LC50 [1] was >−4.00 and the Log10TGI [1] was >−4.00. For the same compound, the Log10GI50 [2] was −5.30, the Log10LC50 [2] was >−4.00 and the Log10TGI [2] was >−4.00. The “new growth in fresh media without drug” value ([3]; 72 h treatment with 30, 100 and 300 μM, then 48 h drug-free) was “No new growth was observed”, the “cell viability reduced by” value ([3]; A549, 24 h, highest drug concentration tested) was 57% and the “EC50 (trypan blue) fold higher than IC50 (MTS)” value ([3]; A549, 48 h) was ~1.6 fold. For the same compound, the “viability of A549 cells, of control” value ([3]; higher doses over 24 h) was “above 50%”, the EC50 ([3]; 48 h) was 19 ± 4 µM and the EC50 ([3]; 72 h) was 16 ± 1 µM. For the same compound, the “growth inhibitory effect on A549 cells” value ([4]; 48 and 72 h) was “complete growth inhibition”, the “growth inhibitory effect on A549 cells” value ([4]; 24 h) was “partial growth inhibitory effect” and the EC50 ([4]; A549 (NSCLC), MTS, table of Example 3) was 8 µM. For the same compound, the IC50 ([4]; 24 h) was 7.6 ± 3 µM, the IC50 ([4]; 48 h) was 5.2 ± 1 µM and the IC50 ([4]; 72 h) was 4.4 ± 2 µM. For the same compound, the IC50 [5] was 11.7 ± 1.78 µM, the Log10GI50 [6] was −5.46 and the Log10LC50 [6] was >−4.00. For the same compound, the Log10TGI [6] was >−4.00, the Log10GI50 [7] was −5.45 and the Log10LC50 [7] was >−4.00. The Log10TGI [7] was >−4.00, the EC50 [8] was 3 µM and the Log10GI50 [9] was −5.75. The Log10LC50 [9] was −4.26, the Log10TGI [9] was −5.33 and the Log10GI50 [10] was −5.76. The Log10LC50 [10] was >−4.00, the Log10TGI [10] was >−4.00 and the Log10GI50 [11] was −5.66. The Log10LC50 [11] was >−4.00, the Log10TGI [11] was −5.11 and the Log10GI50 [12] was −5.53. For the same compound, the Log10LC50 [12] was >−4.00, the Log10TGI [12] was −5.10 and the Log10GI50 [13] was −5.27. For the same compound, the Log10LC50 [13] was >−4.00, the Log10TGI [13] was >−4.00 and the Log10GI50 [14] was −5.25. For the same compound, the Log10LC50 [14] was −4.46, the Log10TGI [14] was >−4.00 and the Log10GI50 [15] was −5.34. For the same compound, the Log10LC50 [15] was >−4.00, the Log10TGI [15] was >−4.00 and the Log10GI50 [16] was −5.70. The Log10LC50 [16] was −4.11 and the Log10TGI [16] was −5.30.
